Consider six compounds from paper PMC6102074 (European journal of medicinal chemistry, 2018).

≈ marks a conversion by molar mass, not a printed value.

The subject of one series is VEGF. The settings on record: human monocyte leukemia cells (THP1); previously reported, ref [9], [17]; cited from earlier work.
The next series in a line: rat microsome stability. The settings on record: microsomes.
Series [1] in a line: kinetic solubility analysis in PBS solution. The class given is physicochemical.
Series [2] in a line: Pion's μSOL assay for kinetic solubility. The class given is physicochemical.
The conditions of series [3]: after 60 minutes.

The term kinetic solubility denotes the concentration staying in solution when a stock, usually in DMSO, is diluted into the medium. The compound `O=C(Nc1ccccc1C(=O)Nc1ccccc1C(=O)NCc1ccco1)c1ccco1` [Compound 1] gave a kinetic solubility in “physchem” of 1.6 µg/mL (≈ 3.73 µM).

In general, half-life refers to how long it takes for the measured level to halve. A higher half-life goes with slow loss. Consider `CC(C)Oc1ccccc1C(=O)Nc1ccccc1C(=O)Nc1cccc(S(=O)(=O)C(F)(F)F)c1` [Compound 65, 2-Isopropoxy-N-(2-(3-(trifluoromethylsulfonyl)phenylcarbamoyl)phenyl)benzamide], for which the “activation of VEGF transcription” value with VEGF is on record as “activate the transcription”. This compound also showed a half-life in the series “rat microsome stability” of 28.2 min.

As a reminder, the solubility is how much of the substance goes into solution per volume. With `CCOc1ccccc1C(=O)Nc1ccccc1C(=O)Nc1cccc(S(=O)(=O)C(F)(F)F)c1` [Compound 63, 2-Ethoxy-N-(2-((3-((trifluoromethyl)sulfonyl)phenyl)carbamoyl)phenyl)benzamide], in series [1], the solubility was below 1.1 µM.

Turning to `CCOc1ccccc1C(=O)Nc1ncccc1C(=O)Nc1cccc(S(=O)(=O)C(F)(F)F)c1` [Compound 49, 2-(2-Ethoxybenzamido)-N-(3-((trifluoromethyl)sulfonyl)phenyl)nicotinamide], the solubility in series [2] is below 1 µM.

Turning to “3-(Cyclohexanecarboxamido)-N-(3-(trifluoromethyl)phenyl)-benzamide [Compound 3]”, in series [3], the “parent remaining in mouse liver microsomes” value was 70%.

Turning to `CCOc1ccccc1C(=O)Nc1cnccc1C(=O)Nc1cccc(S(=O)(=O)C(F)(F)F)c1` [Compound 50, 3-(2-Ethoxybenzamido)-N-(3-((trifluoromethyl)sulfonyl)phenyl)isonicotinamide], the solubility in series [2] is below 1 µM.
